These are literature values, as cited in US20200222451A1, “Composition” (Optibiotix Limited, priority 2017, published 2020).

For this series the following is noted: compared to placebo.

Regarding chromium picolinate, for the setting “P<0.0001”, the fat cravings result is “reduces” and the food intake result is on record as “reduces”. Also, the hunger levels result (P<0.05) was “reduces”. The body weight entry (P<0.08) is on record as “decrease”.
